Reference: patent US4552882A, “7-(1-Pyrrolyl) derivatives of 1-ethyl-1,4-dihydro-4-oxoquinoline-3-carboxylic acids and 1-ethyl-1,4-dihydro-4-oxo-1,8-naphthyridine-3-carboxylic acids and their use as antimicrobial agents” (Provesan, SA, priority 1983, dated 1985)
Values after ≈ are worked out from the molar mass of the structure shown.

test system: gram-negative microorganisms; assay: in vitro antimicrobial activity compared to pipemidic acid; format: cell-based; conditions: not given
Experimental: (G. L. Daquet and Y. A. Chabbect, Techniques en bacteriologie (Bacteriological techniques), vol. 3, Flammarion Medecine Sciences, Paris, 1972 and W. B. Hugo and A. D. Rusell, Pharmaceutical Microbiology, Blackwell Scientific Publications, London, (1977)).
Antibiotic medium no. 1 (seed agar) (Oxoid CM 327)
Tryptone-soya broth (Oxoid CM 129)
Ringer's physiological solution 1/4 (oxoid BR 52) Dextrose agar (BBL-11165) 0.1 N NaOH
Each of the microorganisms is seeded by streaking in tubes of Antibiotic medium No. 1 (seed agar), which are then incubated at 37° C. for 20 hours. Using a culture loop, the cultures are then seeded in tryptone-soyabroth and incubated at 37° C. for 20 hours. The culture obtained is diluted to 1/4 with Ringer's physiological solution, so as to obtain a standardized suspension of 10^7 -10^9 cfu/ml for each organism.
Starting from a solution of 1,000 μg/ml in 0.1 N NaOH, each product is diluted in Dextrose agar (previously melted and maintained at 50° C.), with successive dilutions so as to obtain the following concentrations: 64--32--16--8--4--2--1--0.5--0.25--0.125 μg of derivative/ml medium.
For each product, the solution of each concentration is subsequently distributed into Petri dishes 10 cm in diameter, with 10 ml of medium per dish and the same number of dishes as microorganisms to be tested.
As soon as the medium has cooled, the dishes are seeded with the inoculations using 0.4 ml of inoculation per dish. They are spread with a Driglasky loop and the supernatant is removed. The seeded dishes are incubated at 37° C. for 20 hours.

For CCn1cc(C(=O)O)c(=O)c2ccc(-n3cccc3)nc21 [Example 3, 1-ethyl-1,4-dihydro-4-oxo-7-(1-pyrrolyl)-1,8-naphthyridine-3-carboxylic acid], the “activity compared to pipemidic acid” value was “activity of the same order as that of pipemidic acid”.

test system: Streptococcus faecalis ATCC 10541; assay: MIC in vitro; format: cell-based; conditions: Enterococcus faecalis, ATCC10541, Dextrose agar, 37° C., 20 hours
From the text: (G. L. Daquet and Y. A. Chabbect, Techniques en bacteriologie (Bacteriological techniques), vol. 3, Flammarion Medecine Sciences, Paris, 1972 and W. B. Hugo and A. D. Rusell, Pharmaceutical Microbiology, Blackwell Scientific Publications, London, (1977)). Antibiotic medium no. 1 (seed agar) (Oxoid CM 327) Tryptone-soya broth (Oxoid CM 129) Ringer's physiological solution 1/4 (oxoid BR 52) Dextrose agar (BBL-11165) 0.1 N NaOH "Streptococcus faecalis" ATCC 10541 Each of the microorganisms is seeded by streaking in tubes of Antibiotic medium No. 1 (seed agar), which are then incubated at 37° C. for 20 hours. Using a culture loop, the cultures are then seeded in tryptone-soyabroth and incubated at 37° C. for 20 hours. The culture obtained is diluted to 1/4 with Ringer's physiological solution, so as to obtain a standardized suspension of 10^7 -10^9 cfu/ml for each organism. Starting from a solution of 1,000 μg/ml in 0.1 N NaOH, each product is diluted in Dextrose agar (previously melted and maintained at 50° C.), with successive dilutions so as to obtain the following concentrations: 64--32--16--8--4--2--1--0.5--0.25--0.125 μg of derivative/ml medium. For each product, the solution of each concentration is subsequently distributed into Petri dishes 10 cm in diameter, with 10 ml of medium per dish and the same number of dishes as microorganisms to be tested. As soon as the medium has cooled, the dishes are seeded with the inoculations using 0.4 ml of inoculation per dish. They are spread with a Driglasky loop and the supernatant is removed. The seeded dishes are incubated at 37° C. for 20 hours.

First: CCn1cc(C(=O)O)c(=O)c2ccc(-n3cccc3)cc21 [Example 1, 7-(1-pyrrolyl)-1-ethyl-1,4-dihydro-4-oxo-3-quinolinecarboxylic acid]
Second: CCn1cc(C(=O)O)c(=O)c2cc(F)c(-n3cccc3)cc21 [Example 2, 6-fluoro-7-(1-pyrrolyl)-1-ethyl-1,4-dihydro-4-oxo-3-quinolinecarboxylic acid]
The MIC of the first is 16-fold higher: 16 µg/mL (≈ 56.7 µM) for the first, 1 µg/mL (≈ 3.33 µM) for the second.

Going from CCn1cc(C(=O)O)c(=O)c2ccc(-n3cccc3)nc21 [Example 3, 1-ethyl-1,4-dihydro-4-oxo-7-(1-pyrrolyl)-1,8-naphthyridine-3-carboxylic acid] to CCn1cc(C(=O)O)c(=O)c2cc(F)c(-n3cccc3)nc21 [Example 4, 1-ethyl-1,4-dihydro-4-oxo-6-fluoro-7-(1-pyrrolyl)-1,8-naphthyridine-3-carboxylic acid], the MIC falls from 32 µg/mL (≈ 113 µM) to 8 µg/mL (≈ 26.6 µM) (4-fold).

In the case of CCn1cc(C(=O)O)c(=O)c2cnc(N3CCNCC3)nc21 [Pipemidic acid, reference compound], the MIC is reported as > 64 µg/mL.
